Results published in US7816352B2, “Apoptosis inhibitors” (The Regents of The University of California, priority 2005, dated 2010).
Where two headings read alike, the source gives them in different places.

Key:
thymocytes = assay: Cytoprotection of mouse thymocytes from dexamethasone-induced apoptosis (PI/DiOC6 flow cytometry); type: cell-based, C57Bl/6 mice; settings: Thymocyte
Procedure: Thymocytes were harvested from young C57Bl/6 mice and cultured at 37° C. in 5% CO2 in RPMI 1640 containing 10% FBS, 1% Penicillin/Streptomycin (Gibco BRL, Rockville, Md.). Thymocytes were plated at a density of 10^7 cells/mL and pre-incubated with 5-10 μM of test compounds, 1, 2, 4, and 11 (from 10 mM
[drawing 8] stock in DMSO) for 30 minutes before induction of apoptosis. Apoptosis was induced with 5 μM dexamethasone or by exposure to 6 Gy gamma radiation. After 6 hours, cell apoptosis was assayed by propidium iodide (PI) and 3,3′ dihexyloxacarbocyanine iodide (DiOC6) staining. The cells were removed from the plate and incubated for 30 minutes in medium with 40 nM DiOC6 and 5 μg/mL PI and then analyzed by flow cytometry in a FACS caliber (Beckton-Dickinson, San Jose, Calif.). Viable cells had high DiOC6 (FL-1) and low PI (FL-3), whereas apoptotic cells had low DiOC6 (FL-1) and […]. To evaluate the IC50s the thymocytes were pre-exposed to graded concentrations of selected compounds for 30 min and then apoptosis was induced with 5 μM dexamethasone. After 6 hours the cells were harvested and stained as above. The results are illustrated in FIGS. 1 and 2 IC50 Determination
The concentration (IC50) of each compound that inhibited dexamethasone-induced cell death by 50% was determined by nonlinear regression fitting of the data to a one-site model. Pseudo Hill slopes were determined by nonlinear regression fit of the data to a sigmoidal dose-response equation (variable slope): % viability=minimum %/viability+(maximum−minimum % viability)/[1+10(log IC50−X)^n], where X is the logarithm of inhibitor concentration, and n is the pseudo Hill slope and the maximum and minimum % viability were experimentally determined after dexamethasone exposure and drug treatment. IC50 values and 95% confidence intervals (CI) were derived from the sigmoid fits to the percent control transformed data shown using GraphPad Prism version 4.0b for Macintosh (GraphPad Software, San Diego, Calif.).

[1] = mice; cited from earlier work
cells = cells pre-incubated with compound, then exposed to γ-radiation; cited from earlier work
[2] = 5 μM dexamethasone, 30 min pre-incubation, 6 hours, 95% CI in parentheses, read-out: EC50, in vitro cytoprotection activity
[3] = read-out: EC50, cytoprotective activity following in vitro dexamethasone treatment of mouse thymocytes

| EC50 (thymocytes; [2]) | SMILES | also measured |
| --- | --- | --- |
| > 10 µM | Cc1ccc(C(=O)Cn2c(=O)ccc3ccccc32)cc1 [Compound 7, 1-(2-Oxo-2-p-tolyl-ethyl)-1H-quinolin-2-one] |  |
| 0.28 µM | CON=C(C[n+]1ccccc1)c1ccc(N2CCCC2)cc1 [Compound 13, 1-[2-Methoxyimino-2-(4-pyrrolidin-1-yl-phenyl)-ethyl]-pyridinium bromide] |  |
| > 10 µM | CON=C(Cn1c(=O)ccc2ccccc21)c1ccc(C)cc1 [Compound 6, 1-(2-Methoxyimino-2-p-tolyl-ethyl)-1H-quinolin-2-one] |  |
|  | Br.Cc1ccc(C(=O)Cn2c3c(sc2=N)CCCC3)cc1 [Compound 1, 2-(2-imino-4,5,6,7-tetrahydro-benzothiazol-3-yl)-1-p-tolyl-ethanone hydrobromide] | mortality after γ-radiation [1]: reduced mortality; EC50 (thymocytes; [3]): 4.4 µM; apoptosis after γ-radiation (cells): decreased in apoptosis |
| 0.013 µM | CON=C(C[n+]1cccc2ccccc21)c1ccc(N2CCCC2)cc1 [Compound 11, 1-[2-Methoxyimino-2-(4-pyrrolidin-1-yl-phenyl)-ethyl]-quinolinium bromide] |  |
| > 10 µM | Cc1ccc(C(=O)C[n+]2ccccc2)cc1 [Compound 9, 1-(2-Oxo-2-p-tolyl-ethyl)-pyridinium bromide] |  |
| > 10 µM | CON=C(Cn1c(=O)ccc2ccccc21)c1ccc(N2CCCC2)cc1 [Compound 12, 1-[2-Methoxyimino-2-(4-pyrrolidin-1-yl-phenyl)-ethyl]-1H-quinolin-2-one] |  |
| 5.1 µM | CON=C(C[n+]1ccccc1)c1ccc(C)cc1 [Compound 8, 1-(2-Methoxyimino-2-p-tolyl-ethyl)-pyridinium bromide] |  |
| > 10 µM | Cc1ccc(C(=O)C[n+]2cccc3ccccc32)cc1 [Compound 5, 1-(2-Oxo-2-p-tolyl-ethyl)-quinolinium bromide] |  |
| 0.35 µM | CON=C(C[n+]1cccc2ccccc21)c1ccc(C)cc1 [Compound 4, 1-(2-Methoxyimino-2-p-tolyl-ethyl)-quinolinium bromide] | EC50 (thymocytes; [3]): 0.35 µM |
